# From PubChem BioAssay (NCI)
#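 Five concentrations, 48 hours, 96-well plates. Abbreviation: GI50, concentration required for 50% inhibition of growth. TGI: concentration producing complete growth inhibition.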
# Columns and labels:
# Assay in all cases: DTP human tumour cell line panel, 48 h
# K-562 leukemia = system: K-562 leukemia
# COLO 205 colon = system: COLO 205 colon
# EKVX NSCLC = system: EKVX NSCLC
# SF-268 CNS = system: SF-268 CNS
# KM12 colon = system: KM12 colon
# CAKI-1 renal = system: CAKI-1 renal
# SF-295 CNS = system: SF-295 CNS
# MOLT-4 leukemia = system: MOLT-4 leukemia
# T-47D breast = system: T-47D breast
# SK-OV-3 ovarian = system: SK-OV-3 ovarian
# 786-0 renal = system: 786-0 renal
# HCC-2998 colon = system: HCC-2998 colon
# HS 578T breast = system: HS 578T breast
# PC-3 prostate = system: PC-3 prostate
# OVCAR-3 ovarian = system: OVCAR-3 ovarian
# UACC-257 melanoma = system: UACC-257 melanoma
# SNB-19 CNS = system: SNB-19 CNS
# OVCAR-8 ovarian = system: OVCAR-8 ovarian
# HCT-15 colon = system: HCT-15 colon
# NCI-H226 lung = system: NCI-H226 lung
# RPMI-8226 leukemia = system: RPMI-8226 leukemia
# HL-60(TB) leukemia = system: HL-60(TB) leukemia
# HOP-62 NSCLC = system: HOP-62 NSCLC
# MDA-MB-435 = system: MDA-MB-435
# TK-10 renal = system: TK-10 renal
# SK-MEL-5 melanoma = system: SK-MEL-5 melanoma
# M14 melanoma = system: M14 melanoma
# A498 renal = system: A498 renal
# OVCAR-5 ovarian = system: OVCAR-5 ovarian
# HT29 colon = system: HT29 colon
# NCI-H23 lung = system: NCI-H23 lung
# HOP-92 NSCLC = system: HOP-92 NSCLC
# NCI/ADR-RES ovarian = system: NCI/ADR-RES ovarian
# ACHN renal = system: ACHN renal
# UACC-62 melanoma = system: UACC-62 melanoma
# RXF 393 renal = system: RXF 393 renal
# NCI-H522 lung = system: NCI-H522 lung
# IGROV1 ovarian = system: IGROV1 ovarian
# SK-MEL-28 melanoma = system: SK-MEL-28 melanoma
# SR leukemia = system: SR leukemia
# SNB-75 CNS = system: SNB-75 CNS
# MALME-3M melanoma = system: MALME-3M melanoma
# CCRF-CEM leukemia = system: CCRF-CEM leukemia
# A549 NSCLC = system: A549 NSCLC
# MDA-MB-231 breast = system: MDA-MB-231 breast
# SK-MEL-2 melanoma = system: SK-MEL-2 melanoma
# OVCAR-4 ovarian = system: OVCAR-4 ovarian
# NCI-H460 lung = system: NCI-H460 lung
# BT-549 breast = system: BT-549 breast
# HCT-116 colon = system: HCT-116 colon
# UO-31 renal = system: UO-31 renal
# LOX IMVI melanoma = system: LOX IMVI melanoma
# DU-145 prostate = system: DU-145 prostate
# SW-620 colon = system: SW-620 colon
# U251 CNS = system: U251 CNS
# MCF7 breast = system: MCF7 breast
# SN12C renal = system: SN12C renal
# SF-539 CNS = system: SF-539 CNS
compound,measurement,setting,value
CN1CCN(c2ccc3c(c2)NCC(=O)N3)CC1,TGI,K-562 leukemia,> 100 µM
same,TGI,COLO 205 colon,> 100 µM
same,TGI,EKVX NSCLC,> 100 µM
same,TGI,SF-268 CNS,> 100 µM
same,TGI,KM12 colon,> 100 µM
same,TGI,CAKI-1 renal,> 100 µM
same,TGI,SF-295 CNS,> 100 µM
same,TGI,MOLT-4 leukemia,> 100 µM
same,TGI,T-47D breast,> 100 µM
same,TGI,SK-OV-3 ovarian,> 100 µM
same,TGI,786-0 renal,> 100 µM
same,TGI,HCC-2998 colon,> 100 µM
same,TGI,HS 578T breast,> 100 µM
same,TGI,PC-3 prostate,> 100 µM
same,TGI,OVCAR-3 ovarian,> 100 µM
same,TGI,UACC-257 melanoma,> 100 µM
same,TGI,SNB-19 CNS,> 100 µM
same,TGI,OVCAR-8 ovarian,> 100 µM
same,TGI,HCT-15 colon,> 100 µM
same,TGI,NCI-H226 lung,> 100 µM
same,TGI,RPMI-8226 leukemia,> 100 µM
same,TGI,HL-60(TB) leukemia,> 100 µM
same,TGI,HOP-62 NSCLC,> 100 µM
same,TGI,MDA-MB-435,> 100 µM
same,TGI,TK-10 renal,> 100 µM
same,TGI,SK-MEL-5 melanoma,> 100 µM
same,TGI,M14 melanoma,> 100 µM
same,TGI,A498 renal,> 100 µM
same,TGI,OVCAR-5 ovarian,> 100 µM
same,TGI,HT29 colon,> 100 µM
same,TGI,NCI-H23 lung,> 100 µM
same,TGI,HOP-92 NSCLC,> 100 µM
same,TGI,NCI/ADR-RES ovarian,> 100 µM
same,TGI,ACHN renal,> 100 µM
same,TGI,UACC-62 melanoma,> 100 µM
same,TGI,RXF 393 renal,> 100 µM
same,TGI,NCI-H522 lung,> 100 µM
same,TGI,IGROV1 ovarian,> 100 µM
same,TGI,SK-MEL-28 melanoma,> 100 µM
same,TGI,SR leukemia,> 100 µM
same,TGI,SNB-75 CNS,> 100 µM
same,TGI,MALME-3M melanoma,> 100 µM
same,TGI,CCRF-CEM leukemia,> 100 µM
same,TGI,A549 NSCLC,> 100 µM
same,TGI,MDA-MB-231 breast,> 100 µM
same,TGI,SK-MEL-2 melanoma,> 100 µM
same,TGI,OVCAR-4 ovarian,> 100 µM
same,TGI,NCI-H460 lung,> 100 µM
same,TGI,BT-549 breast,> 100 µM
same,TGI,HCT-116 colon,> 100 µM
same,TGI,UO-31 renal,> 100 µM
same,TGI,LOX IMVI melanoma,> 100 µM
same,TGI,DU-145 prostate,> 100 µM
same,TGI,SW-620 colon,> 100 µM
same,TGI,U251 CNS,> 100 µM
O=C(CN1N=C(c2ccc(F)cc2)CCC1=O)Nc1nc2ccccc2s1,GI50,K-562 leukemia,5.32 µM
same,TGI,K-562 leukemia,> 100 µM
same,GI50,COLO 205 colon,> 100 µM
same,TGI,COLO 205 colon,> 100 µM
same,GI50,EKVX NSCLC,2.82 µM
same,TGI,EKVX NSCLC,> 100 µM
same,GI50,SF-268 CNS,5.59 µM
same,TGI,SF-268 CNS,> 35.9 µM
same,GI50,KM12 colon,> 25.9 µM
same,TGI,KM12 colon,> 100 µM
same,GI50,CAKI-1 renal,0.583 µM
same,TGI,CAKI-1 renal,1.76 µM
same,GI50,SF-295 CNS,> 100 µM
same,TGI,SF-295 CNS,> 100 µM
same,GI50,MOLT-4 leukemia,7.61 µM
same,TGI,MOLT-4 leukemia,31.5 µM
same,GI50,T-47D breast,> 100 µM
same,TGI,T-47D breast,> 100 µM
same,GI50,SK-OV-3 ovarian,> 100 µM
same,TGI,SK-OV-3 ovarian,> 100 µM
same,GI50,786-0 renal,0.235 µM
same,TGI,786-0 renal,0.607 µM
same,GI50,HCC-2998 colon,> 100 µM
same,TGI,HCC-2998 colon,> 100 µM
same,GI50,HS 578T breast,6.75 µM
same,TGI,HS 578T breast,66 µM
same,GI50,PC-3 prostate,9.82 µM
same,TGI,PC-3 prostate,> 100 µM
same,GI50,OVCAR-3 ovarian,1.99 µM
same,TGI,OVCAR-3 ovarian,4.16 µM
same,GI50,UACC-257 melanoma,> 100 µM
same,TGI,UACC-257 melanoma,> 100 µM
same,GI50,SNB-19 CNS,> 96.7 µM
same,TGI,SNB-19 CNS,> 100 µM
same,GI50,OVCAR-8 ovarian,0.788 µM
same,TGI,OVCAR-8 ovarian,4.33 µM
same,GI50,HCT-15 colon,41.6 µM
same,TGI,HCT-15 colon,> 100 µM
same,GI50,NCI-H226 lung,69.7 µM
same,TGI,NCI-H226 lung,> 100 µM
same,GI50,RPMI-8226 leukemia,2.29 µM
same,TGI,RPMI-8226 leukemia,6.17 µM
same,GI50,MCF7 breast,50.1 µM
same,TGI,MCF7 breast,> 100 µM
same,GI50,HL-60(TB) leukemia,3.68 µM
same,TGI,HL-60(TB) leukemia,19 µM
same,TGI,HOP-62 NSCLC,> 100 µM
same,GI50,MDA-MB-435,> 73.5 µM
same,TGI,MDA-MB-435,> 100 µM
same,GI50,TK-10 renal,> 100 µM
same,TGI,TK-10 renal,> 100 µM
same,GI50,SK-MEL-5 melanoma,> 93.2 µM
same,TGI,SK-MEL-5 melanoma,> 100 µM
same,GI50,M14 melanoma,33.2 µM
same,TGI,M14 melanoma,> 100 µM
same,GI50,A498 renal,22.8 µM
same,TGI,A498 renal,> 100 µM
same,GI50,OVCAR-5 ovarian,3.39 µM
same,TGI,OVCAR-5 ovarian,> 92.1 µM
same,GI50,HT29 colon,3.32 µM
same,TGI,HT29 colon,11.5 µM
same,GI50,HOP-92 NSCLC,1.31 µM
same,TGI,HOP-92 NSCLC,2.84 µM
same,GI50,NCI/ADR-RES ovarian,> 28.2 µM
same,TGI,NCI/ADR-RES ovarian,> 100 µM
same,GI50,ACHN renal,4.23 µM
same,TGI,ACHN renal,> 100 µM
same,GI50,UACC-62 melanoma,7.62 µM
same,TGI,UACC-62 melanoma,> 100 µM
same,GI50,RXF 393 renal,5.91 µM
same,TGI,RXF 393 renal,> 55.9 µM
same,GI50,NCI-H522 lung,0.187 µM
same,TGI,NCI-H522 lung,0.371 µM
same,GI50,IGROV1 ovarian,0.165 µM
same,TGI,IGROV1 ovarian,0.361 µM
same,GI50,SN12C renal,15.7 µM
same,TGI,SN12C renal,> 100 µM
same,GI50,SK-MEL-28 melanoma,> 100 µM
same,TGI,SK-MEL-28 melanoma,> 100 µM
same,GI50,SNB-75 CNS,17.9 µM
same,TGI,SNB-75 CNS,> 100 µM
same,GI50,MALME-3M melanoma,0.621 µM
same,TGI,MALME-3M melanoma,1.56 µM
same,GI50,CCRF-CEM leukemia,0.249 µM
same,TGI,CCRF-CEM leukemia,0.665 µM
same,GI50,A549 NSCLC,13.7 µM
same,TGI,A549 NSCLC,> 100 µM
same,GI50,MDA-MB-231 breast,1.24 µM
same,TGI,MDA-MB-231 breast,3.47 µM
same,GI50,SK-MEL-2 melanoma,> 89.8 µM
same,TGI,SK-MEL-2 melanoma,> 100 µM
same,GI50,OVCAR-4 ovarian,2.14 µM
same,GI50,NCI-H460 lung,> 51.5 µM
same,TGI,NCI-H460 lung,> 100 µM
same,GI50,BT-549 breast,4.81 µM
same,GI50,HCT-116 colon,46.9 µM
same,TGI,HCT-116 colon,> 100 µM
same,GI50,UO-31 renal,0.182 µM
same,TGI,UO-31 renal,0.405 µM
same,GI50,SF-539 CNS,1.7 µM
same,TGI,SF-539 CNS,3.19 µM
same,GI50,LOX IMVI melanoma,0.179 µM
same,TGI,LOX IMVI melanoma,0.344 µM
same,GI50,DU-145 prostate,> 25.6 µM
same,TGI,DU-145 prostate,> 100 µM
same,GI50,SW-620 colon,> 49.5 µM
same,TGI,SW-620 colon,> 100 µM
same,GI50,U251 CNS,2.08 µM
same,TGI,U251 CNS,4.69 µM
